“Also recorded” adds a separate entry of the source.
Columns and labels:
Assay type in all cases: in vivo, mouse
[1] = tested on: WT, PWS (Snord116m+/p−) and PWS-KO (Snord116m−/p−) mice; assay: Indirect calorimetry and home-cage activity (TSE system); settings: end of study, TSE metabolic chamber
Method: Indirect calorimetry and locomotor activity measurements were performed using a Labmaster Mouse calorimetry and Locomotor system (TSE Systems, Bad Homburg, Germany) in the Metabolism Core Virginia Tech. VO2 consumption and VCO2 production in individual mice were measured using metabolic chambers. Air going into the TSE system was at 20.9% oxygen, 0.05% CO2, and the airflow rate was 0.4 L/min (Airgas, Christiansburg, VA, USA). Data were collected every 15 min. Body composition was measured, as described above, prior to assessment of the animals using the TSE system. A photobeam-based ac-tivity monitoring system detected and recorded ambulatory movements. The results were used to calculate the respiratory exchange ratio (RER) and total energy expenditure/gram lean mass. Energy expenditure (KJ/h) was calculated using the formula VO2×(3.815+(1.232×RER))×4.1868 and normalized to the lean mass determined by NMR. All parameters were measured continuously and simultaneously for 48 h after approximately 20 h of adaptation for single-housed mice. The average values for the last 24-48 h were used for analysis. To calculate hourly activity, the average of two-hour bins of activity from the last 24 h period was plotted. […]

[2] = tested on: cecal bacterial communities; assay: Cecum microbiome analysis (16S rRNA sequencing)
Method: Cecal samples were flash-frozen in liquid nitrogen and stored at −80° C. DNA was isolated from cecal content using a DNeasy PowerSoil Pro Kit (Qiagen #47014) and the TissueLyser II (Qiagen #85300). Fifty nanograms of genomic DNA was utilized for amplifi-cation of the V4 variable region of the 16S rRNA gene using 515F/806R primers. Forward and reverse primers were barcoded to accommodate multiplexing up to 384 samples per run as described by Kozich and colleagues. Paired-end sequencing (2×250 bp) of pooled amplicons was carried out using an Illumina Miseq platform with ˜30% PhiX DNA.
Demultiplexing, adapter trimming, and generating the fastq files were performed au-tomatically using the Miseq Reporter on the instrument computer. Bioinformatics analysis was then conducted using the QIIME 2 platform. Denoising was performed with an initial quality filtering followed by the Deblur algorithm. Representative amplicon sequence variants (ASVs) were used to generate a phylogenetic tree with FastTree, and taxonomy was assigned using a Naive Bayes classifier trained on the Greengenes 13_8 reference. To evaluate diversity metrics, samples were rarefied to an even depth of 4397 quality-filtered reads. Beta diversity was assessed using the weighted Unifrac distances and visualized using the principal coordinate analysis (PCoA) plot.
Statistical analyses for microbiome data were performed in R v4.0.5. Differences in beta diversity were evaluated using permutational multivariate analysis of variance (PERMANOVA) with 999 permutations and including the weighted Unifrac distance matrix. The Kruskal-Wallis test was used to evaluate alpha metrics and taxonomic differences and the Dunn's test was used to evaluate pairwise multiple comparisons, with p-values corrected for multiple testing using the false discovery rate (FDR) approach.

[3] = tested on: testes of N2KO and WT mice; assay: Testicular histology (H&E), Example 3
Excerpt: At the end of the study, numerous body tissues were taken during necropsy, including testes. […] There appeared to be no effect in WT mice.
At the end of the 12-week feeding study with supplemental CLA, mice were euthanized and necropsied. Testicular tissue was removed from the abdominal cavity and placed in 4% paraformaldehyde overnight. The next day, tissue was dehydrated in 70% ethanol and stored at 4 degrees C. until further processing, which included embedding, sectioning and H&E staining.

[4] = tested on: WT, PWS (Snord116m+/p−) and PWS-KO (Snord116m−/p−) mice; assay: Rotarod analysis, Example 1; settings: end of study
Method: For rotarod analysis, animals were tested using a Columbus Instruments (Columbus, OH, USA) Economex Rota-Rod apparatus. All mice in the study were given four trials each day during the day (between 11 a.m. and 1 p.m.) for four consecutive days from 0 rpm to a maximum speed of 20 rpm, with an acceleration slope of 2.65%. Animals were tested for a maximum of 5 min of running per test, or until the animals fell off the device. The Economex Rota-Rod apparatus is equipped with a pressure-sensitive landing area so that the time spent on the rotating rod is automatically recorded when the animal falls.
The procedure has been previously described. Animals were given between 10 and 15 min of rest in between trials. Note that there are four days of testing, with each day consisting of four trials. The initial trials on Day 1 use a lane where Applicant placed non-slip bathroom tape to provide a stable environment for the animal to learn the procedure. The non-taped lanes were used for Days 2-4. Days 2-3 serve as acclimation days. Day 4 data were used for analysis.

conjugated linoleic acid [CLA]
Home-cage activity [1]: not significant | Relative abundance of Cyanobacteria ([2]; CLA vs control diet, p=0.04): lower | Firmicutes phylum overall ([2]; H=3.74, p=0.59): not significantly affected | Sutterella sp. ([2]; H=13.8, p=0.02): significantly increased | Ruminococcus sp. ([2]; all genotypes): reduced | Turicibacter sp. ([2]; all genotypes, H=15.7, p=0.008): significantly reduced | Relative abundance of the other phyla ([2]; between diets, p>0.09): similar | α-diversity metrics ([2]; control vs CLA, p≤0.02): differed | β-diversity measures ([2]; weighted Unifrac): significantly impacted | Testicular morphology, WT mice ([3]; 12 weeks CLA diet): no effect; also recorded: normal testicular morphology | Testicular morphology, N2KO mice ([3]; 12 weeks CLA diet vs control diet): improved testicular morphology | Sperm in N2KO mice fed the CLA diet ([3]; N2KO, histology): apparent presence of sperm in the epididymis | Testis size ([3]; effect of diet): not influenced | Rotarod ability [4]: not affected

— patent US20240238237A1, “CONJUGATED LINOLEIC ACID SUPPLEMENTATION FOR DISEASE TREATMENT” (VIRGINIA TECH INTELLECTUAL PROPERTIES, INC., priority 2021, published 2024)
